Publication PMC7297445, “Pharmacokinetic/Pharmacodynamic Determination and Preclinical Pharmacokinetics of the β-Lactamase Inhibitor ETX1317 and Its Orally Available Prodrug ETX0282” (ACS Infectious Diseases, 2020)

Legend:
E. coli ARC2687 = assay: MIC, broth microdilution (CLSI); assay type: cell-based; conditions: Escherichia coli, ARC2687; combination at 1:2 ratio cefpodoxime:ETX1317, MIC of CPD
Method: (§1) MICs were determined utilizing a 1:2 ratio of cefpodoxime:ETX1317. […] The isolates utilized in the present study (Table 1) were broadly insensitive to CPD, presumably due to the presence of ESBLs and carbapenemases expressed in these strains. The addition of ETX1317 restored CPD activity to ≤1 μg/mL across all the tested isolates.
(§2) The MIC of each isolate was determined using the broth microdilution method following CLSI guidelines of document M07-A7 (CLSI M07-A7).

K. pneumoniae ARC4486 = assay: MIC, broth microdilution (CLSI); assay type: cell-based; conditions: Klebsiella pneumoniae, combination at 1:2 ratio cefpodoxime:ETX1317, MIC of CPD
Method: as §1, §2

K. pneumoniae ARC4420 = assay: MIC, broth microdilution (CLSI); assay type: cell-based; conditions: Klebsiella pneumoniae, combination at 1:2 ratio cefpodoxime:ETX1317, MIC of CPD
Method: as §1, §2

E. coli ARC4419 = assay: MIC, broth microdilution (CLSI); assay type: cell-based; conditions: Escherichia coli, combination at 1:2 ratio cefpodoxime:ETX1317, MIC of CPD
Method: as §1, §2

K. pneumoniae ARC4488 = assay: MIC, broth microdilution (CLSI); assay type: cell-based; conditions: Klebsiella pneumoniae, ARC4488; combination at 1:2 ratio cefpodoxime:ETX1317, MIC of CPD
Method: as §1, §2

E. coli NMC101 = assay: MIC, broth microdilution (CLSI); assay type: cell-based; conditions: Escherichia coli, combination at 1:2 ratio cefpodoxime:ETX1317, MIC of CPD
Method: as §1, §2

K. pneumoniae ARC5118 = assay: MIC, broth microdilution (CLSI); assay type: cell-based; conditions: Klebsiella pneumoniae, ARC5118; combination at 1:2 ratio cefpodoxime:ETX1317, MIC of CPD
Method: as §1, §2

Plasma protein binding [1] = assay type: in vitro ADME, rat
Method: (§3) Plasma protein binding was determined by rapid equilibrium dialysis. Plasma was freshly prepared from blood samples drawn in to EDTA (anticoagulant) containing tubes. Plasma was prepared using a table-top centrifuge and spun per instruction of the tube manufacturer and specifications (Beckton, Dickinson and Company, Franklin Lakes, NJ) and placed on ice prior to use.
(§4) Pooled plasma samples were centrifuged at 2000 rpm (approximately 1400g) for 15 min at 4 °C to remove debris. Approximately 90% of the clear supernatant fraction was transferred to a separate tube. Samples (500 μL) were then spiked with a 100× stock solution 100 μM, 0.5 mM, and 10 mM ETX1317 in DMSO respectively for 1, 5, and 100 μM final concentrations, transferred to the top of the filter chambers, and allowed to equilibrate for 15 min prior to centrifugation. The filtrate tubes were centrifuged at 14000g for 15 min at 4 °C. Next, 50 μL of the filtrate was precipitated with 300 μL of acetonitrile containing 250 ng/mL of carbutamide as the internal standard and the samples were analyzed by LC/MS/MS analysis.

[2] = Human PK prediction (allometric scaling); conditions: for CL/F / V/F: predicted human
Text: The methodology utilized for prediction of human PK of ETX1317 was consistent with methods used in support of similar chemotypes such as avibactam and ETX2514.[43] Human predictions for volume of distribution (Vd,ss) and clearance (CL) were within 2-fold of observed mean data obtained in Phase 1 studies, with renal clearance as the predominant clearance mechanism.[44],[45] Pharmacokinetic and excretion data from rats, dogs, and monkeys were used collectively for the projection of ETX1317 PK. Liver S9 incubations were also performed across all species (including human) to confirm consistent conversion of ETX0282 to ETX1317 at projected dose levels of ETX0282.[42] Human PK prediction of ETX1317 was completed using single species allometry for volume of distribution from dog PK and dog and monkey single species scaling using liver blood flow to predict non-renal clearance (CLNR).[46] […] While urinary excretion of ETX1317 was lower in dogs relative to monkeys and rats, human renal clearance (CLR) was predicted using dog-human renal correlation,[47] as this method has been highly predictive for compounds that are generally eliminated via renal excretion. The elimination half-life was estimated based upon the combined use of predicted parameters for clearance and volume of distribution, where T1/2 = ln 2*Vd,ss/CLtotal. Allometric scaling predicted human Vd,ss of 0.35 L/kg.
(§5) Based upon the non-clinical PK data, a range of 60–80% bioavailability and a moderate absorption rate of 0.5–1.0 h^–1 have been considered for humans. In consideration of these predicted parameters, mean percent fT > CT of 1 μg/mL (2× MIC of 0.5 μg/mL) estimates for a 500 mg ETX1317 equiv q12h dose of ETX0282 are summarized in Table S3.

Plasma protein binding [3] = assay type: in vitro ADME, monkey
Method: as §3, §4

Excretion into the bile = conditions: in vivo
Method: as §5

**Q.** Which MIC (E. coli ARC2687) does the source give for `CC1=C[C@@H](C(N)=O)N2C[C@@H]1N(O[C@H](F)C(=O)O)C2=O` [ETX1317] here?
**A.** The MIC was 0.5 µg/mL.

**Q.** What about the MIC (K. pneumoniae ARC4486) of the same compound?
**A.** The MIC was 32 µg/mL.

**Q.** What about the MIC (K. pneumoniae ARC4420) of the same compound?
**A.** Its MIC is 16 µg/mL.

**Q.** And the MIC (E. coli ARC4419)?
**A.** Its MIC is 0.25 µg/mL.

**Q.** And the MIC (K. pneumoniae ARC4488)?
**A.** Its MIC is 0.5 µg/mL.

**Q.** What about the MIC (E. coli NMC101) of the same compound?
**A.** The MIC was 1 µg/mL.

**Q.** What about the MIC (K. pneumoniae ARC5118) of the same compound?
**A.** The MIC was 32 µg/mL.

**Q.** What about the Proportion unbound (Plasma protein binding [1]; 1 µM) of the same compound?
**A.** The Proportion unbound was 94%.

**Q.** What about the Proportion unbound (Plasma protein binding [1]; 5 µM) of the same compound?
**A.** Its Proportion unbound is 97%.

**Q.** What about the Proportion unbound (Plasma protein binding [1]; 100 µM) of the same compound?
**A.** The Proportion unbound was 83%.

**Q.** And the predicted human half-life ([2]; T1/2 = ln 2*Vd,ss/CLtotal)?
**A.** Its predicted human half-life is 1.2 to 1.6 h.

**Q.** What about the CL/F ([2]; F% 60) of the same compound?
**A.** Its CL/F is 17.6 to 23.7 L/h.

**Q.** What about the V/F ([2]; F% 60) of the same compound?
**A.** Its V/F is 41 L.

**Q.** What about the CL/F ([2]; F% 70) of the same compound?
**A.** The CL/F was 15.1 to 20.3 L/h.

**Q.** What about the V/F ([2]; F% 70) of the same compound?
**A.** The V/F was 35 L.

**Q.** And the CL/F ([2]; F% 80)?
**A.** Its CL/F is 13.2 to 17.8 L/h.

**Q.** And the V/F ([2]; F% 80)?
**A.** Its V/F is 31 L.

**Q.** What about the Proportion unbound (Plasma protein binding [3]; 1 µM) of the same compound?
**A.** The Proportion unbound was 77%.

**Q.** What about the Proportion unbound (Plasma protein binding [3]; 5 µM) of the same compound?
**A.** Its Proportion unbound is 97%.

**Q.** What about the “excretion into the bile” value (Excretion into the bile) of the same compound?
**A.** The value was “minimal excretion”.
